In general, Tmax refers to the time at which the peak concentration occurs. A word on the Ki: it is a dissociation constant, usually derived from enzyme kinetics or from competition with a known ligand. Lower therefore signals a stronger hold on the target.

The nature of data set [1]: Plasma exposure in Long Evans rats. It counts as in vivo. Conditions: rat. As to the method:
A minimum of 400 μL of whole blood was collected via saphenous bleed at 10 min, 20 min, 60 min, and 120 min post drug administration, i.e. at time points that coincided with the activity study (and phase 2: 5-choice experiments). Blood was collected and transferred into K3 EDTA tubes. The tubes were allowed to sit at room temperature for approximately 2 minutes and placed on wet ice until centrifugation. Blood was spun in the centrifuge with speed of 3,500 rpm for 15 minutes at 4° C. Plasma was separated and placed into a labeled 0.75 ml Matrix tube and capped. Plasma tubes were placed into a Matrix rack and stored in a −80° C. freezer. At the final time point (120 minutes post drug administration) following blood collection by cardiac puncture, the brain tissue was extracted and hemisected along the midline. One hemisphere, without the cerebellum, was placed in the 15 ml pre-weighed brain tube while the other portion was disposed. The brain tubes were weighed, frozen on dry ice, and stored at −80 C. Brain tissue and plasma samples were shipped on dry ice to Sponsor. Blood and brain levels of compound 504 were to be conducted by the Sponsor.

Data set [2] in a line: PET study, pharmacokinetic assessments. The settings on record: human, plasma, single oral doses 0.5 to 5 mg. It counts as in vivo. From the text:
The pharmacokinetic parameters of compound 504 were estimated using non-compartmental analysis.

For data set [3], the target named is A2A receptor (Rattus norvegicus, UniProt P30543). Briefly: Striatal A2A occupancy in rats by ex vivo autoradiography. Also on record: incubation of the tracer with brain slices obtained from rats dosed with compound 504; from tissue; host or cells: striatum in coronal brain sections of male CD rats (Charles River Japan). As to the method: After that the artery and vein blood was collected into tubes containing heparin. Immediately after that the brain was removed and ebbed in OCT compound and frozen in 2-methyl butane cooled with dry ice. The frozen brains were preserved at −80 C until use.
Chain of A2A receptor (Rattus norvegicus, UniProt P30543) (P30543 whole entry): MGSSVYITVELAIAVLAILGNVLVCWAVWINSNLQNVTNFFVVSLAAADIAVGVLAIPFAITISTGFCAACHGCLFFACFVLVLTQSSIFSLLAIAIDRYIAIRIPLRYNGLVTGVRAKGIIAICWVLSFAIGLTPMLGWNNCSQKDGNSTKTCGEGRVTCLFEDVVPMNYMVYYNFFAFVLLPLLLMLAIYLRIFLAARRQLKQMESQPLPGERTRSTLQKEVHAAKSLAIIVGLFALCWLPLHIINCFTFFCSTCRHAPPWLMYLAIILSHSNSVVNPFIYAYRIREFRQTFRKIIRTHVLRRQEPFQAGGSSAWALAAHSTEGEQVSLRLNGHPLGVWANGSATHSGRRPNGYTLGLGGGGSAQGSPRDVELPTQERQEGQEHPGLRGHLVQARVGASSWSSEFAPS
Coronal sections (20 μm) at about bregma 1.2 mm were prepared using a cyromicrotome (Coldtome, set temperature—20 C), Sakura) and placed on a slide glass (Super Frost, Matsunami Glass; 2 or 3 sections per glass). The brain sections collected on the slide glass were preserved at −80 C. Seventy μL of the reaction solution containing the tracer at 0.1 or 0.3 nmol/L was applied on the brain section and incubated at room temperature for the preset time. The reaction solution containing the tracer was handled using siliconized tools. After the incubation with the tracer, the brain section was washed for 1 minute with ice-cold wash solution three times and rinsed with ice-cold water twice. Non-specific binding of the tracer was evaluated by performing the same reaction with the brain section prepared from drug-untreated rats in the presence of 0.1 mmol/1 NECA. The brain section was dried at room temperature, exposed to the imaging plate (BAS-TR2040, Fuji Film) in a cassette, and left in a shield box for about 24 hours. The radioactivity was recorded under the following conditions: Resolution: 50 μm; Gradation: 256; Sensitivity: 10000; Latitude:5.
These plasma samples were used as calibration curve samples.
To pre-treat plasma samples, the internal standard (I.S.) was dissolved in acetonitrile to prepare an I.S. solution at 0.03 μg/mL. Plasma sample was diluted with control plasma whenever necessary. To 0.1 mL of plasma sample, 10 μL of the I.S. solution and 1 mL of 10 mmol/L ammonium acetate were added and stirred to prepare the sample for pretreatment. The sample was pretreated using Oasis HLB Extraction Plate (30 mg, Waters). Each well was serially conditioned with 1 mL of methanol and water. One ml of the sample for pretreatment was loaded on a well. After each well was washed with 1 mL of 5% vol % methanol, the analyte was eluted with 1 mL acethonitrile. The eluate was evaporated under nitrogen gas stream and the residue was redssolved in 0.1 mL of the reconstituted solution. The sample was centrifuged at 4 C, about 1800×G for 5 minutes using […] (0.45 μm hydrophilic PVDF, Whatman). An aliquote of the filtrate was used for analysis.
Calculation of the A2A receptor occupancy in striatum was done using the below formula
Φ(%)=(1−(PSLKW−BG/A)/(PSLctrl−BG/A))*100
Where PSLKW- and PSLctrl are PSL values in the ROI of compound 504-[…] animal, respectively. PLS is Photo stimulated luminescence for detection of tracer and ROI is region of interest for tracer measurement in striatum. […]

The target of data set [4] is T1, A2A receptor (Homo sapiens, UniProt P29274). Nature of the data set: PET study in humans of A2A receptor occupancy with [11C]-SCH442416. It counts as in vivo. Conditions: for EC50: plasma concentration at PET scan, read-out: estimated EC50 of A2A receptor occupancy (converted). The protocol: There were 3 cohorts in the study, each including 2 subjects.
T1 sequence (P29274 whole entry): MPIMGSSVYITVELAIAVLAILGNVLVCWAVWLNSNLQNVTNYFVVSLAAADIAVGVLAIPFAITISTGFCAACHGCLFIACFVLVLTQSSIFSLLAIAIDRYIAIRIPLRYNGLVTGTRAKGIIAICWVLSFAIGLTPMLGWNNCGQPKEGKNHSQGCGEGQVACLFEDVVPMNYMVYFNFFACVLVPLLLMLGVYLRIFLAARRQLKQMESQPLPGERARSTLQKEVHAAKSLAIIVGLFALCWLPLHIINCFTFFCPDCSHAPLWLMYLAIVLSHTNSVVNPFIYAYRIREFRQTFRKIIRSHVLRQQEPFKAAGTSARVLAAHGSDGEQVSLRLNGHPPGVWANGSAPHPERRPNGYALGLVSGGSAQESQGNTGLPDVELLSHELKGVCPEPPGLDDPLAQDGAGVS
In the Screening period (Days −28 to −4) safety screening procedures were performed and subject eligibility was confirmed following a magnetic resonance imaging (MRI) scan (Days −21 to −2). Eligible subjects were admitted to the clinic on Day −1. […] The subjects received the PET tracer [11C]-SCH442416 immediately prior to each PET scan.
The PET tracer, [11C]-SCH442416 was provided as a radiopharmaceutical in an 11 mL sterile and pyrogen free type 1 glass vial as a solution for intravenous administration. The [11C]-SCH442416 solution consisted of up to 10% ethanol and 90% saline and was administered as an intravenous bolus in approximately […] of the saline/ethanol solution over approximately 20 seconds. Each subject received a maximum of 500 MBq of [11C]-SCH442416 for each PET scan.
PET data were analysed using the simplified reference tissue method (SRTM). […] The SRTM implementation employed directly estimated the binding potential relative to the non-displaceable component (BPND), which can be thought of as a measure of specific binding.
Receptor occupancy (RO) in a region of interest (ROI) can then be calculated directly as: RO=100×(1−BPND(post-dose)/BPND(baseline))
Binding potential and estimated RO were listed and presented graphically versus CPET.

For data set [5], the target named is A2A receptor (Callithrix jacchus, UniProt A0A8I3X4X6). Nature of the data set: Adenosine receptor binding affinity, marmoset A2A.
Chain of A2A receptor (Callithrix jacchus, UniProt A0A8I3X4X6) (A0A8I3X4X6 1-410): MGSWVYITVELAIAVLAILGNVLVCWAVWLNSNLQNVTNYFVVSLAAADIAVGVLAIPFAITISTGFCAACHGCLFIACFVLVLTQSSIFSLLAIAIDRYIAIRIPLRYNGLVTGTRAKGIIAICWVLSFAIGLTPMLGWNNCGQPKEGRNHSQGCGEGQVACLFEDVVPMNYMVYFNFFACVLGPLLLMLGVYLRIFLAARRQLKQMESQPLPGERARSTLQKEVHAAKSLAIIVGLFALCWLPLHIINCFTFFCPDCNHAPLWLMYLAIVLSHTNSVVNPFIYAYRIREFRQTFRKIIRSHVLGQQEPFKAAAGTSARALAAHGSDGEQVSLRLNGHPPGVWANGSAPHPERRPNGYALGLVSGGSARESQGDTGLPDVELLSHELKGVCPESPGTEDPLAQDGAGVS
In data set [6] the target is T1, A2A receptor. Briefly: biochemical.

Read-outs that look alike come from different tables or passages of the source. Bounds are passed on as bounds.

The compound `Cc1ccc(C(=O)Nc2nc(-c3ccco3)c(C(=O)C3CCOCC3)s2)cn1` [Compound 504] had a plasma concentrations in data set [1] (oral 0.01-0.1 mg/kg) of 100 to 450 ng/mL. The same compound yielded a plasma levels in data set [1] (oral 0.03-0.1 mg/kg, 60 min and 90 min sampling) of 150 to 400 ng/mL. Moreover, the Tmax in data set [2] lay in the range of 1 to 2 h. Also, at A2A receptor [3] (hysteresis evaluation, semi compartment PK model, rat), the equilibration half-life is reported as below 0.5 h. Further, the “EC80 plasma concentration of rat striatal occupancy” value on A2A receptor [3] (predicted from rat occupancy Emax PK/PD model) was 1.25 µg/mL. Moreover, the EC50 on A2A receptor [3] (rat, 0.3 mg/kg oral, Emax model, 95% CI 113 to 128 ng/mL, read-out: EC50 plasma concentration for striatal A2A receptor occupancy (converted)) was 304 nM; on A2A receptor [4] (globus pallidus), 173 nM; at A2A receptor [4] (putamen) it was 78 nM. The receptor occupancy at 0.175 µg/mL on A2A receptor [3] (rat, read-out: A2A occupancy corresponding to marmoset EC80 of 175 ng/mL) was above 50%. Besides, the “estimated Emax of A2A receptor occupancy” value on A2A receptor [4] (globus pallidus, Emax model vs CPET) is 101%. Moreover, on A2A receptor [4] (single oral dose, healthy young men), the “dosage sufficient to reach an occupancy of 80%” value is recorded as at most 3 mg. Besides, the Ki on A2A receptor [5] was 0.113 ± 0.0046 nM; at A2A receptor [6], 0.118 ± 0.0023 nM.

(Values after patent publication US20180125835A1, “Dosage and Use of an A2A Antagonist” (H. Lundbeck A/S, priority 2014, published 2018).)
